Source: patent publication US11702422B2, “Imidazopyridazines as modulators of IL-17” (Janssen Pharmaceutica NV, priority 2020, dated 2023)

Experiments:
[1] = test system: IL-17A-induced G-CSF production in human normal keratinocyte (NHK); assay: NHK Assay: IL-17A-induced G-CSF production in human normal keratinocytes; type: cell-based; settings: Homo sapiens, Keratinocyte, 24 h, adult normal human keratinocytes, IL-17A 5 ng/mL, simple average if tested more than once
Procedure, shortened: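 HTRF read-out of supernatant G-CSF, quantified from a standard curve, gave IC50 values. Adult keratinocytes, 3000-4000 cells/well, received human IL-17A (5 ng/mL final) pre-mixed 1 h at rt with compound, in 5% FBS and 0.2% DMSO, 24 h at 37° C.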

[2] = molecular target: IL-17A(FLAG-Tagged): IL-17RA(His-Tagged) (Homo sapiens, UniProt Q16552, K93Q); assay: IL-17A(FLAG-Tagged): IL-17RA(His-Tagged) Binding Disruption Eu-HTRF Assay; settings: IL-17A/IL-17RA binding disruption, simple average if tested more than once
Procedure, shortened: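 IC50 comes from a one-site competition fit of the HTRF 665/620 nm ratio. Compound dilutions (2-fold, 22 points) were held 1 h rt with FLAG-tagged IL-17A dimer, then His-tagged IL-17RA plus Eu-cryptate anti-FLAG and D2 anti-His antibodies were added for 2 h rt.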

Sequence of UniProt Q16552 (Q16552 with tags, fused parts or gaps K93Q): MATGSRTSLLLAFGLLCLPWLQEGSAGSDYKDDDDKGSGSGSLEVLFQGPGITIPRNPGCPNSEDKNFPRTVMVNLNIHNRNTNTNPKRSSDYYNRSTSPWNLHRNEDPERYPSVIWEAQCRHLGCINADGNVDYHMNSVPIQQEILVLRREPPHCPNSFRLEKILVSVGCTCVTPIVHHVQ

SMILES	IC50 [1]	IC50 [2]
Cc1nonc1C(=O)N[C@H](c1cn2ncc([C@H](NC(=O)COCC(F)F)C3CC3)cc2n1)C1CCC(F)(F)CC1 [Example 304, N—((S)-(7-((R)-Cyclopropyl(2-(2,2-difluoroethoxy)acetamido)methyl)imidazo[1,2-b]pyridazin-2-yl)(4,4-difluorocyclohexyl)methyl)-4-methyl-1,2,5-oxadiazole-3-carboxamide]	0.91 µM	0.62 µM
CC(C)n1nccc1C(=O)N[C@H](c1cn2ncc([C@H](NC(=O)COCC(F)F)C3CC3)cc2n1)C1CCC(F)(F)CC1 [Example 305, N—((S)-(7-((R)-Cyclopropyl(2-(2,2-difluoroethoxy)acetamido)methyl)imidazo[1,2-b]pyridazin-2-yl)(4,4-difluorocyclohexyl)methyl)-1-isopropyl-1H-pyrazole-5-carboxamide]	1.1 µM	0.14 µM
Cc1nonc1C(=O)N[C@H](c1cn2ncc([C@H](NC(=O)COC3CC3)C3CC3)cc2n1)C1CCC(F)(F)CC1 [Example 306, N—((S)-(7-((R)-(2-Cyclopropoxyacetamido)(cyclopropyl)methyl)imidazo[1,2-b]pyridazin-2-yl)(4,4-difluorocyclohexyl)methyl)-4-methyl-1,2,5-oxadiazole-3-carboxamide]	1.5 µM	0.21 µM
CC(C)n1nccc1C(=O)N[C@H](c1cn2ncc([C@H](NC(=O)COC3CC3)C3CC3)cc2n1)C1CCC(F)(F)CC1 [Example 307, N—((S)-(7-((R)-(2-Cyclopropoxyacetamido)(cyclopropyl)methyl)imidazo[1,2-b]pyridazin-2-yl)(4,4-difluorocyclohexyl)methyl)-1-isopropyl-1H-pyrazole-5-carboxamide]	0.42 µM	0.11 µM
Cc1nonc1C(=O)N[C@H](c1cn2ncc([C@H](NC(=O)COC3CC(F)(F)C3)C3CC3)cc2n1)C1CCC(F)(F)CC1 [Example 308, N—((S)-(7-((R)-Cyclopropyl(2-(3,3-difluorocyclobutoxy)acetamido)methyl)imidazo[1,2-b]pyridazin-2-yl)(4,4-difluorocyclohexyl)methyl)-4-methyl-1,2,5-oxadiazole-3-carboxamide]	1.7 µM	0.2 µM
CC(C)n1nccc1C(=O)N[C@H](c1cn2ncc([C@H](NC(=O)COC3CC(F)(F)C3)C3CC3)cc2n1)C1CCC(F)(F)CC1 [Example 309, N—((S)-(7-((R)-Cyclopropyl(2-(3,3-difluorocyclobutoxy)acetamido)methyl)imidazo[1,2-b]pyridazin-2-yl)(4,4-difluorocyclohexyl)methyl)-1-isopropyl-1H-pyrazole-5-carboxamide]	0.29 µM	0.1 µM
Cc1nonc1C(=O)N[C@H](c1cn2ncc([C@H](NC(=O)CC(C)(C)C(F)F)C3CC3)cc2n1)C1CCC(F)(F)CC1 [Example 312, N—((S)-(7-((R)-Cyclopropyl(4,4-difluoro-3,3-dimethylbutanamido)methyl)imidazo[1,2-b]pyridazin-2-yl)(4,4-difluorocyclohexyl)methyl)-4-methyl-1,2,5-oxadiazole-3-carboxamide]	3.2 µM	0.37 µM
CC(C)n1nccc1C(=O)N[C@H](c1cn2ncc([C@H](NC(=O)CC(C)(C)C(F)F)C3CC3)cc2n1)C1CCC(F)(F)CC1 [Example 313, N—((S)-(7-((R)-Cyclopropyl(4,4-difluoro-3,3-dimethylbutanamido)methyl)imidazo[1,2-b]pyridazin-2-yl)(4,4-difluorocyclohexyl)methyl)-1-isopropyl-1H-pyrazole-5-carboxamide]	0.48 µM	0.16 µM
CC(C)n1nccc1C(=O)N[C@@H](COC(C)(C)C)c1cn2ncc([C@H](NC(=O)CC3CC(F)(F)C3)C3CC3)cc2n1 [Example 318, N—((R)-2-(tert-Butoxy)-1-(7-((R)-cyclopropyl(2-(3,3-difluorocyclobutyl)acetamido)methyl)imidazo[1,2-b]pyridazin-2-yl)ethyl)-1-isopropyl-1H-pyrazole-5-carboxamide]	0.48 µM	0.27 µM
CC(C)(C)OC[C@H](NC(=O)c1nonc1C1CC1)c1cn2ncc([C@H](NC(=O)CC3CC(F)(F)C3)C3CC3)cc2n1 [Example 319, N—((R)-2-(tert-Butoxy)-1-(7-((R)-cyclopropyl(2-(3,3-difluorocyclobutyl)acetamido)methyl)imidazo[1,2-b]pyridazin-2-yl)ethyl)-4-cyclopropyl-1,2,5-oxadiazole-3-carboxamide]	0.33 µM	0.066 µM
CC(C)n1nccc1C(=O)N[C@@H](COC(C)(C)C(F)(F)F)c1cn2ncc([C@H](NC(=O)CC3CC(F)(F)C3)C3CC3)cc2n1 [Example 320, N—((R)-1-(7-((R)-Cyclopropyl(2-(3,3-difluorocyclobutyl)acetamido)methyl)imidazo[1,2-b]pyridazin-2-yl)-2-((1,1,1-trifluoro-2-methylpropan-2-yl)oxy)ethyl)-1-isopropyl-1H-pyrazole-5-carboxamide]	0.062 µM	0.074 µM
CC(C)(OC[C@H](NC(=O)c1nonc1C1CC1)c1cn2ncc([C@H](NC(=O)CC3CC(F)(F)C3)C3CC3)cc2n1)C(F)(F)F [Example 321, 4-Cyclopropyl-N—((R)-1-(7-((R)-cyclopropyl(2-(3,3-difluorocyclobutyl)acetamido)methyl)imidazo[1,2-b]pyridazin-2-yl)-2-((1,1,1-trifluoro-2-methylpropan-2-yl)oxy)ethyl)-1,2,5-oxadiazole-3-carboxamide]	0.032 µM	0.017 µM
CO[C@@H](C)[C@@H](NC(=O)CC1CC(F)(F)C1)c1cnn2cc([C@@H](NC(=O)c3ccnn3C(C)C)C3CCC(F)(F)CC3)nc2c1 [Example 322, N—((S)-(7-((1S,2S)-1-(2-(3,3-Difluorocyclobutyl)acetamido)-2-methoxypropyl)imidazo[1,2-b]pyridazin-2-yl)(4,4-difluorocyclohexyl)methyl)-1-isopropyl-1H-pyrazole-5-carboxamide]	0.096 µM	0.31 µM
CO[C@@H](C)[C@@H](NC(=O)CC1CC(F)(F)C1)c1cnn2cc([C@@H](NC(=O)c3nonc3C)C3CCC(F)(F)CC3)nc2c1 [Example 323, N—((S)-(7-((1S,2S)-1-(2-(3,3-Difluorocyclobutyl)acetamido)-2-methoxypropyl)imidazo[1,2-b]pyridazin-2-yl)(4,4-difluorocyclohexyl)methyl)-4-methyl-1,2,5-oxadiazole-3-carboxamide]	0.67 µM	0.12 µM
Cc1nonc1C(=O)N[C@H](c1cn2ncc([C@H](NC(=O)CCCC(F)F)C3CC3)cc2n1)C1CCC(F)(F)CC1 [Example 326, N—((S)-(7-((R)-Cyclopropyl(5,5-difluoropentanamido)methyl)imidazo[1,2-b]pyridazin-2-yl)(4,4-difluorocyclohexyl)methyl)-4-methyl-1,2,5-oxadiazole-3-carboxamide]	1.1 µM	0.12 µM
Cc1nonc1C(=O)N[C@H](c1cn2ncc([C@H](NC(=O)COCC(F)(F)F)C3CC3)cc2n1)C1CCC(F)(F)CC1 [Example 327, N—((S)-(7-((R)-Cyclopropyl(2-(2,2,2-trifluoroethoxy)acetamido)methyl)imidazo[1,2-b]pyridazin-2-yl)(4,4-difluorocyclohexyl)methyl)-4-methyl-1,2,5-oxadiazole-3-carboxamide]	0.89 µM	0.2 µM
Cc1nonc1C(=O)N[C@H](c1cn2ncc([C@H](NC(=O)C(C)(C)CC(F)F)C3CC3)cc2n1)C1CCC(F)(F)CC1 [Example 328, N—((S)-(7-((R)-Cyclopropyl(4,4-difluoro-2,2-dimethylbutanamido)methyl)imidazo[1,2-b]pyridazin-2-yl)(4,4-difluorocyclohexyl)methyl)-4-methyl-1,2,5-oxadiazole-3-carboxamide]	> 20 µM	2.4 µM
Cc1nonc1C(=O)N[C@H](c1cn2ncc([C@H](NC(=O)CO[C@@H](C)C(F)(F)F)C3CC3)cc2n1)C1CCC(F)(F)CC1 [Example 333, N—((S)-(7-((R)-Cyclopropyl(2-(((S)-1,1,1-trifluoropropan-2-yl)oxy)acetamido)methyl)imidazo[1,2-b]pyridazin-2-yl)(4,4-difluorocyclohexyl)methyl)-4-methyl-1,2,5-oxadiazole-3-carboxamide]	0.62 µM	0.18 µM
CCC(F)(F)CC(=O)N[C@@H](c1cnn2cc([C@@H](NC(=O)c3nonc3C)C3CCC(F)(F)CC3)nc2c1)C1CC1 [Example 338, N—((S)-(7-((R)-Cyclopropyl(3,3-difluoropentanamido)methyl)imidazo[1,2-b]pyridazin-2-yl)(4,4-difluorocyclohexyl)methyl)-4-methyl-1,2,5-oxadiazole-3-carboxamide]	2 µM	0.36 µM
Cc1nonc1C(=O)N[C@H](c1cn2ncc([C@H](NC(=O)C(F)(F)CC3CC3)C3CC3)cc2n1)C1CCC(F)(F)CC1 [Example 339, N—((S)-(7-((R)-Cyclopropyl(3-cyclopropyl-2,2-difluoropropanamido)methyl)imidazo[1,2-b]pyridazin-2-yl)(4,4-difluorocyclohexyl)methyl)-4-methyl-1,2,5-oxadiazole-3-carboxamide]	0.19 µM	0.077 µM
Cc1nonc1C(=O)N[C@H](c1cn2ncc([C@H](NC(=O)CO[C@H](C)C(F)(F)F)C3CC3)cc2n1)C1CCC(F)(F)CC1 [Example 357, N—((S)-(7-((R)-Cyclopropyl(2-(((R)-1,1,1-trifluoropropan-2-yl)oxy)acetamido)methyl)imidazo[1,2-b]pyridazin-2-yl)(4,4-difluorocyclohexyl)methyl)-4-methyl-1,2,5-oxadiazole-3-carboxamide]	2.5 µM	0.95 µM
